Experimental findings from US4795749A, “Imidazopyrroloquinoxaline compounds” (A/S Ferrosan, priority 1985, dated 1989) are described below.

This assay has as its system benzodiazepine receptors. Put plainly: in vivo displacement of 3H-flunitrazepam from brain benzodiazepine receptors. The note with it: female mice, intraperitoneal, 15 min before 3H-FNM i.v.; forebrain 20 min after 3H-FNM. An excerpt: The pharmaceutical properties of the compounds of the invention can be illustrated by determining their capability for displacing radioactivity labelled flunitrazepam from benzodiazepine receptors.
The displacement activity of the compounds of the invention may be found by determining the ED50 value. The ED50 value represents the dose (mg/kg) of a test substance which causes the specific binding of flunitrazepam to benzodiazepine receptors in a living brain to be reduced to 50% of the control value.
Such an in vivo test is carried out as follow:
Principle. Twenty minutes after a dose of ^3 H-flunitrazepam (^3 H-FNM) (200 μCi/kg, i.v.) the amount of specific ^3 H-FNM binding to brain benzodiazepine receptors has reached its maximum value.
Test procedure. […] The amounts of radioactivity on the filters are determined by conventional scintillation counting. […]
Results. The ED50 value is determined from dose response curves. If only one dose of test substance is administered the ED50 value is calculated as follows, provided that the inhibition of specific binding is within the range of 25-75%: [formula] where Co is specific binding in controls and Cx is specific binding in mice treated with test substance.
In general terms: Displacement assays read how much labelled ligand stays bound in the presence of the test substance.

Structures are written as SMILES.

For `c1ccc2c(c1)N1CCCC1c1c(-c3noc(C4CC4)n3)ncn1-2` (stereo not shown), the “in vivo ED50 (dose reducing specific 3H-flunitrazepam binding to brain benzodiazepine receptors to 50% of the control value)” value is recorded as 5.1 mg/kg.
